Like-named read-outs stand apart in the source and are kept apart here.
Key:
[1] = C57BL/KsJ-db/db mice; cited from earlier work
[2] = Interconversion, absorption and circulation of alpha-ET, beta-ET and ET-dione; details: for oxidation at the C-3 position to ET-dione: orally or parenterally (i.p., i.m. or i.v.)
Source text: This is the subject of U.S. application Ser. No. 078,610, filed July 28, 1987 and incorporated herein by reference.

[3] = normal individuals, endogenous metabolite of DHEA; cited from earlier work
[4] = Free alpha-ET blood levels after oral suspensions in eight normal human volunteers (crossover, RIA)
Procedure: Each subject received all three drugs in randomized order with a one-week wash-out period between doses. Following an overnight fast, subjects received 200 mg of test drug suspended in approximately 6 oz. of apple juice. Blood samples were drawn immediately prior to drug administration and at 15 minutes, 30 minutes, 1, 2, 4, 8, 12 and 24 hours.

[5] = in diet, diabetic, genetically obese mice; cited from earlier work
[6] = genetically obese or diabetic mice; cited from earlier work
[7] = oral, severely diabetic mammals; cited from earlier work
[8] = genetically obese mice, variety of routes; cited from earlier work
[9] = Blood sugar in C57BL/K db/db diabetic mice on ET-dione chow; format: in vivo, mouse (C57BL/K db/db); parameters: Blood Sugar: unit not given here
Source text: (§1) Eighteen C57BL/K db/db mice were divided into three groups of 5 and one group (control) of 3. This mouse strain is more diabetic and more resistant to weight gain reduction than the mouse species used in Example 1. The mice were weighed and then permitted to consume a commercially-available chow and water ad librium over a six-week study period. At the end of each week, the mice were reweighed and their blood sugar determined. The chow supplied to three of the groups had ET-dione admixed therewith at either a 0.4, 0.6 or 0 8% concentration.

[10] = A^vy /A mice, 0.4% ET-dione
Source text: Inhibition of the development of obesity was studied in two mutant mouse strains used for diabetes evaluation: C57BL/6, C3HeB/FeJ (A^vy /A). […] C57BL/6 mice (Jackson Laboratories, Bar Harbor, ME) display the genetic obesity syndrome markers obese (ob) and diabetes (db) A^vy /A mice (Jackson Laboratories, Bar Harbor, ME) are characterized by mild obesity and an enhanced susceptibility to certain tumors.
days during week 4 and were then returned to the 0.4% dose level.

[11] = Body weight in C57BL/K db/db diabetic mice on ET-dione chow; format: in vivo, mouse (C57BL/K db/db); details: for 6 wk gain: 6 weeks
Source text: as §1

[12] = not given; remark: listed apart in the source
[13] = rat, before feeding program
Procedure: Food consumption and body weight were measured weekly. […] Liver weight (absolute and % of body weight), total cholesterol, % of esterified cholesterol and triglycerides in the liver were also determined. In addition, epididymal fat pad weights were measured.

SMILES: C[C@]12CC[C@@H](O)C[C@H]1CC[C@@H]1[C@@H]2CC[C@]2(C)C(=O)CC[C@@H]12 [Alpha-ET, 5-beta-androstan-3-alpha-ol-17-one]
- Blood Sugar [1]: reduced blood sugar
- effectiveness vs DHEA in preventing the development of diabetes [1]: four time more effective than DHEA
- plasma insulin concentrations [1]: increased plasma insulin concentrations
- protective effect on the pancreas (granules in islet beta cells) [1]: protective effect on the pancreas
- oxidation at the C-3 position to ET-dione [2]: rapidly oxidized at the C-3 position to ET-dione
- urinary excretion [3]: 3-5 mg per day
- levels of conjugated alpha-ET relative to free alpha-ET ([4]; 30 minutes post-administration): 2-5 times
- anti-obesity properties [5]: effective both in preventing and in arresting the development of obesity
- % W vs Control Day 28 (0.2% in diet, day 28): -9.8%

SMILES: C[C@]12CC[C@H](O)C[C@H]1CC[C@@H]1[C@@H]2CC[C@]2(C)C(=O)CC[C@@H]12 [Beta-ET, 5-beta-androstan-3-beta-ol-17-one]
- Blood Sugar [1]: reduced blood sugar
- effectiveness vs DHEA in preventing the development of diabetes [1]: four time more effective than DHEA
- plasma insulin concentrations [1]: increased plasma insulin concentrations
- protective effect on the pancreas (granules in islet beta cells) [1]: protective effect on the pancreas
- oxidation at the C-3 position to ET-dione [2]: rapidly oxidized at the C-3 position to ET-dione
- anti-obesity properties [5]: effective both in preventing and in arresting the development of obesity

SMILES: C[C@]12CC[C@H](O)CC1=CC[C@@H]1[C@@H]2CC[C@]2(C)C(=O)CC[C@@H]12 [DHEA, 3-beta-hydroxyandrost-5-en-17-one]
- preventive effect on the development of diabetes [6]: marked preventive effect on the development of diabetes
- glucose tolerance [7]: improved glucose tolerance
- hyperglycemia [7]: restored hyperglycemia to normal levels
- rate of weight gain [8]: decreased the rate of weight gain

SMILES: C[C@]12CCC(=O)C[C@H]1CC[C@@H]1[C@@H]2CC[C@]2(C)C(=O)CC[C@@H]12 [ET-dione, 5-beta-androstanedione]
- blood levels of free alpha-ET ([2]; animal and human pharmacokinetic data): increased blood levels of free alpha-ET
- Blood Sugar ([9]; 0.4% ET-dione in chow, week 1): 149 ± 3.9
- Blood Sugar ([9]; 0.4% ET-dione in chow, week 2): 156 ± 8.3
- Blood Sugar ([9]; 0.4% ET-dione in chow, week 3): 151 ± 6.3
- Blood Sugar ([9]; 0.4% ET-dione in chow, week 4): 148 ± 5.6
- Blood Sugar ([9]; 0.4% ET-dione in chow, week 5): 148 ± 17.2
- Blood Sugar ([9]; 0.4% ET-dione in chow, week 6): 168 ± 24.5
- Blood Sugar ([9]; 0.6% ET-dione in chow, week 1): 143 ± 9.0
- Blood Sugar ([9]; 0.6% ET-dione in chow, week 2): 124 ± 10.7
- Blood Sugar ([9]; 0.6% ET-dione in chow, week 3): 151 ± 11.5
- Blood Sugar ([9]; 0.6% ET-dione in chow, week 4): 152 ± 3.7
- Blood Sugar ([9]; 0.6% ET-dione in chow, week 5): 159 ± 17
- Blood Sugar ([9]; 0.6% ET-dione in chow, week 6): 195 ± 37
- Blood Sugar ([9]; 0.8% ET-dione in chow, week 1): 128 ± 5.0
- Blood Sugar ([9]; 0.8% ET-dione in chow, week 2): 126 ± 6.8
- Blood Sugar ([9]; 0.8% ET-dione in chow, week 3): 147 ± 4.2
- Blood Sugar ([9]; 0.8% ET-dione in chow, week 4): 148 ± 3.7
- Blood Sugar ([9]; 0.8% ET-dione in chow, week 5): 137 ± 6.7
- Blood Sugar ([9]; 0.8% ET-dione in chow, week 6): 184 ± 31
- blood sugar level vs untreated mice, in words ([9]; ET-dione in chow, 0.4-0.8%): roughly half that of the untreated mice
- blood levels of alpha-ET over equivalent dosages of alpha-ET [4]: significantly enhanced blood levels of alpha-ET
- amounts of alpha-ET in blood, in words ([4]; 15 minutes to approximately 1 hour after administration): significantly higher amounts of alpha-ET
- free alpha-ET levels, in words, vs alpha-ET or beta-ET administration ([4]; four hours post-administration): significantly higher than from alpha-ET or beta-ET administration
- effectiveness vs 0.1% alpha- and beta-ET, in words [10]: comparable in effectiveness to 0.1% alpha- and beta-ET
- 6 wk gain ([11]; 0.4% ET-dione in chow): 26.1 g
- Body Weight ([11]; 0.4% ET-dione in chow, start): 19.6 ± 1.8 g
- Body Weight ([11]; 0.4% ET-dione in chow, week 1): 26.7 ± 1.7 g
- Body Weight ([11]; 0.4% ET-dione in chow, week 2): 29.8 ± 1.2 g
- Body Weight ([11]; 0.4% ET-dione in chow, week 3): 34.4 ± 0.83 g
- Body Weight ([11]; 0.4% ET-dione in chow, week 4): 36.5 ± 0.8 g
- Body Weight ([11]; 0.4% ET-dione in chow, week 5): 42.2 ± 1.0 g
- Body Weight ([11]; 0.4% ET-dione in chow, week 6): 45.7 ± 0.7 g
- 6 wk gain ([11]; 0.6% ET-dione in chow): 24.1 g
- Body Weight ([11]; 0.6% ET-dione in chow, start): 18.1 ± 1.6 g
- Body Weight ([11]; 0.6% ET-dione in chow, week 1): 23.7 ± 1.9 g
- Body Weight ([11]; 0.6% ET-dione in chow, week 2): 27.3 ± 1.8 g
- Body Weight ([11]; 0.6% ET-dione in chow, week 3): 31.9 ± 1.9 g
- Body Weight ([11]; 0.6% ET-dione in chow, week 4): 34.7 ± 1.9 g
- Body Weight ([11]; 0.6% ET-dione in chow, week 5): 39.1 ± 1.6 g
- Body Weight ([11]; 0.6% ET-dione in chow, week 6): 42.2 ± 0.9 g
- 6 wk gain ([11]; 0.8% ET-dione in chow): 21.7 g
- Body Weight ([11]; 0.8% ET-dione in chow, start): 18.1 ± 1.0 g
- Body Weight ([11]; 0.8% ET-dione in chow, week 1): 23.3 ± 0.7 g
- Body Weight ([11]; 0.8% ET-dione in chow, week 2): 26.4 ± 0.6 g
- Body Weight ([11]; 0.8% ET-dione in chow, week 3): 31.1 ± 0.76 g
- Body Weight ([11]; 0.8% ET-dione in chow, week 4): 33.5 ± 0.91 g
- Body Weight ([11]; 0.8% ET-dione in chow, week 5): 37.0 ± 0.9 g
- Body Weight ([11]; 0.8% ET-dione in chow, week 6): 39.8 ± 1.2 g
- six-week weight gain, in words ([11]; ET-dione in chow, 0.4-0.8%): reduced the six-week weight gain
- Food consumption, Av. Wks 1-4 ([12]; 0.4% in diet, average weeks 1-4): 22.0 g/day
- effectiveness in reducing food consumption relative to alpha-ET ([12]; second rat study): equally effective as alpha-ET in reducing food consumption
- effectiveness on weight gain relative to alpha-ET (all concentrations tested): almost twice as effective as alpha-ET
- effectiveness relative to alpha-ET (general statement) (rat, in vivo): equally or, in some cases, almost twice as effective
- RIA value for alpha-ET, initial [13]: approximately 40 nanograms per deciliter

SMILES: C[C@]12CC[C@@H](O)C[C@@H]1CC[C@@H]1[C@@H]2CC[C@]2(C)C(=O)CC[C@@H]12 [androsterone, reference compound]
- effectiveness vs DHEA in preventing the development of diabetes [1]: not

SMILES: C[C@]12CC[C@H](O)C[C@@H]1CC[C@@H]1[C@@H]2CC[C@]2(C)C(=O)CC[C@@H]12 [epiandrosterone, reference compound]
- effectiveness vs DHEA in preventing the development of diabetes [1]: not

Reference: patent US5006517A, “Treatment of Prader-Willi syndrome” (Progenics, Inc., priority 1989, dated 1991)
